Results: BindingDB's records for doi:10.1074/jbc.M114.556480 (Yale University, 2014)
Non-standard residues stand in square brackets, D forms with d. Residues, ends and D or L forms follow the SMILES beside them. pY = N[C@@H](Cc1ccc(OP(=O)(O)O)cc1)C(=O)O

Target: T1, Tyrosine-protein kinase ABL1 [131-238] (Human, UniProt P00519)
T1 construct: 131-238
T1 sequence (P00519 whole entry): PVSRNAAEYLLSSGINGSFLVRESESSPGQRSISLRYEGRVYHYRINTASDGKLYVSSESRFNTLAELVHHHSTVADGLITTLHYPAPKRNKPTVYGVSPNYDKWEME
Assay: Fluorescence Polarization Assay
Settings: pH 7.25
Protocol: SH2 domains were dialyzed into binding buffer (50 mM Hepes, pH 7.25, 150 mM NaCl, 0.01% Nonidet P-40, 5% glycerol) and a 30-μl volume serially diluted into pre-chilled 384-well low flange black flat bottom non-binding microplates (Corning) while on ice. 5 μl of 35 nM fluorescent peptide dissolved in binding buffer was added to each well (final concentration 5 nM), mixed 5 times by pipetting, and plates were incubated at 4 °C for 40 min. Fluorescence polarization experiments were performed with an Analyst AD (Molecular Devices, Sunnyvale, CA) spectrofluorimeter. Each well was excited using 485 nm light and emission was read at 530 nm. Fluorescence polarization was measured 1 mm from the bottom of each well with an integration time of 560 ms. All experiments were conducted in triplicate.

Row | Structure (SMILES) | Kd [µM]
1 | CC[C@H](C)[C@H](NC(=O)[C@@H]1CCCN1C(=O)[C@H](CO)NC(=O)[C@@H](N)CO)C(=O)N[C@@H](Cc1ccc(OP(=O)(O)O)cc1)C(=O)N[C@@H](CCC(=O)O)C(=O)N[C@@H](CC(=O)O)C(=O)N[C@@H](C)C(=O)N[C@@H](C)C(=O)O [SSPIpYEDAA] (H-SSPI[pY]EDAA-OH) | 3.33
2 | CC(C)[C@H](NC(=O)[C@@H]1CCCN1C(=O)[C@H](CCC(=O)O)NC(=O)[C@@H](N)CO)C(=O)N[C@@H](Cc1ccc(OP(=O)(O)O)cc1)C(=O)N[C@@H](CCC(=O)O)C(=O)N[C@H](C(=O)N[C@H](C(=O)N[C@@H](CCC(=O)O)C(=O)O)[C@@H](C)O)[C@@H](C)O [SEPVpYETTE] (H-SEPV[pY]ETTE-OH) | 3.27
3 | C[C@@H](O)[C@H](NC(=O)[C@H](CC(=O)O)NC(=O)[C@H](CC(=O)O)NC(=O)[C@@H](N)CCC(=O)O)C(=O)N[C@@H](Cc1ccc(OP(=O)(O)O)cc1)C(=O)N[C@@H](CC(=O)O)C(=O)NCC(=O)N[C@@H](Cc1ccc(O)cc1)C(=O)N[C@@H](CCC(=O)O)C(=O)O [EDDTpYDGYE] (H-EDDT[pY]DGYE-OH) | > 61.9
